# Measurements reported in patent US11076595B2, “1-(n,n-disubstituted carbamoyl) 4-(substituted sulfonyl)triazolin-5-one derivative, 4-(n,n-disubstituted carbamoyl) 1-(substituted sulfonyl)triazolin-5-one derivative, and herbicide containing said derivative as active ingredient” (HOKKO CHEMICAL INDUSTRY CO., LTD., priority 2017, dated 2021).
# How the values were obtained:
# Assay type in all cases: in vivo
# [1] = system: Scirpus juncoides; test: Test Example 12: herbicidal effect test by treatment during growing period in paddy field; settings: 120 g/10a; treatment seven days after sowing in flooded paddy pot; assessed 14 days after treatment
# Summary of the method: (§1)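 Read-out: weed suppression (%) = (1 − treated/untreated mean dry weight) × 100, scored 14 days after treatment with two replications. Pots held puddled paddy soil, 30 seeds per species sown 0–1 cm, flooded ~3 cm. Post-emergence dropwise water application at 7 days after sowing, 120 g a.i./10 are.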
# [2] = system: Lindernia pyxidaria; test: as above; settings: 120 g/10a; treatment seven days after sowing in flooded paddy pot; assessed 14 days after treatment
# Summary of the method: as §1
# [3] = system: Monochoria vaginalis; test: as above; settings: 120 g/10a; treatment seven days after sowing in flooded paddy pot; assessed 14 days after treatment
# Summary of the method: as §1
# [4] = system: Echinochloa crus-galli; test: as above; settings: 120 g/10a; treatment seven days after sowing in flooded paddy pot; assessed 14 days after treatment
# Summary of the method: as §1
# [5] = system: Chenopodium album; test: Test Example 14: herbicidal effect test by foliage treatment in upland field; settings: 7 days after sowing, 120 g/10a, 14 days after treatment
# Summary of the method: (§2)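 Post-sowing spray at day 7, 120 g a.i./10 are in 100 L water/10 are; alluvial soil pots, duplicate plots; endpoint day 14, % suppression from dry weight relative to untreated.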
# [6] = system: crabgrass; test: as above; settings: 7 days after sowing, 120 g/10a, 14 days after treatment
# Summary of the method: as §2
# [7] = system: Scirpus juncoides; test: Test Example 11: herbicidal effect test by soil treatment in paddy field; settings: 120 g/10a active ingredient, 14 days after treatment
# Summary of the method: (§3)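 Seeds were sown 0-1 cm deep in puddled, fertilised paddy soil in Wagner pots and kept under about 3 cm of flooding in a greenhouse. Diluted emulsifiable concentrate was added dropwise right after sowing at 120 g a.i. per 10 are. Suppression (%) came from dry weight versus untreated pots after 14 days, two replicates.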
# [8] = system: Lindernia pyxidaria; test: as above; settings: 120 g/10a active ingredient, 14 days after treatment
# Summary of the method: as §3
# [9] = system: Monochoria vaginalis; test: as above; settings: 120 g/10a active ingredient, 14 days after treatment
# Summary of the method: as §3
# [10] = system: Echinochloa crus-galli; test: as above; settings: 120 g/10a active ingredient, 14 days after treatment
# Summary of the method: as §3
# [11] = system: Amaranthus viridis; test: Test Example 14: herbicidal effect test by foliage treatment in upland field; settings: 7 days after sowing, 120 g/10a, 14 days after treatment
# Summary of the method: as §2
# [12] = system: Echinochloa crus-galli; test: as above; settings: 7 days after sowing, 120 g/10a, 14 days after treatment
# Summary of the method: as §2
smiles,measurement,setting,value
CC(C)N(C(=O)n1cnn(S(=O)(=O)c2ccccc2F)c1=O)c1ccc(F)c(F)c1F [Compound 11-405],Weed suppression rate (%) Scirpus juncoides,[1],100%
same,Weed suppression rate (%) Lindemia pyxidaria,[2],100%
same,Weed suppression rate (%) Monochoria vaginalis,[3],100%
same,Weed suppression rate (%) Echinochloa crus-galli,[4],100%
same,"herbicidal effect, Chenopodium album",[5],60%
same,"herbicidal effect, Crabgrass",[6],90%
same,Weed suppression rate (%) Scirpus juncoides,[7],100%
same,Weed suppression rate (%) Lindemia pyxidaria,[8],100%
same,Weed suppression rate (%) Monochoria vaginalis,[9],100%
same,Weed suppression rate (%) Echinochloa crus-galli,[10],100%
same,"herbicidal effect, Amaranthus viridis",[11],70%
same,"herbicidal effect, Echinochloa crus-galli",[12],90%
C=CS(=O)(=O)n1ncn(C(=O)N(c2ccc(F)cc2F)C(C)C)c1=O [Compound 11-134],Weed suppression rate (%) Scirpus juncoides,[1],40%
same,Weed suppression rate (%) Lindemia pyxidaria,[2],40%
same,Weed suppression rate (%) Monochoria vaginalis,[3],40%
same,Weed suppression rate (%) Echinochloa crus-galli,[4],70%
same,"herbicidal effect, Chenopodium album",[5],40%
same,"herbicidal effect, Crabgrass",[6],70%
same,Weed suppression rate (%) Scirpus juncoides,[7],40%
same,Weed suppression rate (%) Lindemia pyxidaria,[8],40%
same,Weed suppression rate (%) Monochoria vaginalis,[9],40%
same,Weed suppression rate (%) Echinochloa crus-galli,[10],70%
same,"herbicidal effect, Amaranthus viridis",[11],40%
same,"herbicidal effect, Echinochloa crus-galli",[12],40%
CC(C)N(C(=O)n1cnn(S(=O)(=O)C2CC2)c1=O)c1ccc(C(F)(F)F)cc1F [Compound 11-217],Weed suppression rate (%) Scirpus juncoides,[1],80%
same,Weed suppression rate (%) Lindemia pyxidaria,[2],80%
same,Weed suppression rate (%) Monochoria vaginalis,[3],90%
same,Weed suppression rate (%) Echinochloa crus-galli,[4],100%
same,"herbicidal effect, Chenopodium album",[5],70%
same,"herbicidal effect, Crabgrass",[6],100%
same,Weed suppression rate (%) Scirpus juncoides,[7],80%
same,Weed suppression rate (%) Lindemia pyxidaria,[8],100%
same,Weed suppression rate (%) Monochoria vaginalis,[9],100%
same,Weed suppression rate (%) Echinochloa crus-galli,[10],100%
same,"herbicidal effect, Amaranthus viridis",[11],60%
same,"herbicidal effect, Echinochloa crus-galli",[12],100%
CC(C)N(C(=O)n1cnn(S(=O)(=O)C(C)C)c1=O)c1ccc(Cl)cc1Br [Compound 11-71],Weed suppression rate (%) Scirpus juncoides,[1],100%
same,Weed suppression rate (%) Lindemia pyxidaria,[2],70%
same,Weed suppression rate (%) Monochoria vaginalis,[3],70%
same,Weed suppression rate (%) Echinochloa crus-galli,[4],100%
same,"herbicidal effect, Chenopodium album",[5],70%
same,"herbicidal effect, Crabgrass",[6],100%
same,Weed suppression rate (%) Scirpus juncoides,[7],100%
same,Weed suppression rate (%) Lindemia pyxidaria,[8],90%
same,Weed suppression rate (%) Monochoria vaginalis,[9],70%
same,Weed suppression rate (%) Echinochloa crus-galli,[10],100%
same,"herbicidal effect, Amaranthus viridis",[11],60%
same,"herbicidal effect, Echinochloa crus-galli",[12],100%
CC(C)N(C(=O)n1cnn(S(=O)(=O)C2CC2)c1=O)c1ccc(Cl)cc1F [Compound 11-206],Weed suppression rate (%) Scirpus juncoides,[1],90%
same,Weed suppression rate (%) Lindemia pyxidaria,[2],90%
same,Weed suppression rate (%) Monochoria vaginalis,[3],90%
same,Weed suppression rate (%) Echinochloa crus-galli,[4],100%
same,"herbicidal effect, Chenopodium album",[5],60%
same,"herbicidal effect, Crabgrass",[6],90%
same,Weed suppression rate (%) Scirpus juncoides,[7],100%
same,Weed suppression rate (%) Lindemia pyxidaria,[8],100%
same,Weed suppression rate (%) Monochoria vaginalis,[9],100%
same,Weed suppression rate (%) Echinochloa crus-galli,[10],100%
same,"herbicidal effect, Amaranthus viridis",[11],60%
same,"herbicidal effect, Echinochloa crus-galli",[12],90%
CC(C)N(C(=O)n1cnn(S(=O)(=O)C2CC2)c1=O)c1ccc(Br)cc1Cl [Compound 11-209],Weed suppression rate (%) Scirpus juncoides,[1],100%
same,Weed suppression rate (%) Lindemia pyxidaria,[2],80%
same,Weed suppression rate (%) Monochoria vaginalis,[3],90%
same,Weed suppression rate (%) Echinochloa crus-galli,[4],100%
same,"herbicidal effect, Chenopodium album",[5],60%
same,"herbicidal effect, Crabgrass",[6],90%
same,Weed suppression rate (%) Scirpus juncoides,[7],100%
same,Weed suppression rate (%) Lindemia pyxidaria,[8],100%
same,Weed suppression rate (%) Monochoria vaginalis,[9],90%
same,Weed suppression rate (%) Echinochloa crus-galli,[10],100%
same,"herbicidal effect, Amaranthus viridis",[11],30%
same,"herbicidal effect, Echinochloa crus-galli",[12],90%
CC(C)N(C(=O)n1cnn(S(=O)(=O)C(C)C)c1=O)c1ccc(Cl)cc1F [Compound 11-67],Weed suppression rate (%) Scirpus juncoides,[1],90%
same,Weed suppression rate (%) Lindemia pyxidaria,[2],90%
same,Weed suppression rate (%) Monochoria vaginalis,[3],90%
same,Weed suppression rate (%) Echinochloa crus-galli,[4],100%
same,"herbicidal effect, Chenopodium album",[5],60%
same,"herbicidal effect, Crabgrass",[6],90%
same,Weed suppression rate (%) Scirpus juncoides,[7],90%
same,Weed suppression rate (%) Lindemia pyxidaria,[8],90%
same,Weed suppression rate (%) Monochoria vaginalis,[9],90%
same,Weed suppression rate (%) Echinochloa crus-galli,[10],100%
same,"herbicidal effect, Amaranthus viridis",[11],60%
same,"herbicidal effect, Echinochloa crus-galli",[12],90%
CC(C)N(C(=O)n1cnn(S(=O)(=O)c2ccccc2F)c1=O)c1ccccc1 [Compound 11-391],Weed suppression rate (%) Scirpus juncoides,[1],80%
same,Weed suppression rate (%) Lindemia pyxidaria,[2],80%
same,Weed suppression rate (%) Monochoria vaginalis,[3],80%
same,Weed suppression rate (%) Echinochloa crus-galli,[4],90%
same,"herbicidal effect, Chenopodium album",[5],40%
same,"herbicidal effect, Crabgrass",[6],90%
same,Weed suppression rate (%) Scirpus juncoides,[7],80%
same,Weed suppression rate (%) Lindemia pyxidaria,[8],80%
same,Weed suppression rate (%) Monochoria vaginalis,[9],60%
same,Weed suppression rate (%) Echinochloa crus-galli,[10],90%
same,"herbicidal effect, Amaranthus viridis",[11],40%
same,"herbicidal effect, Echinochloa crus-galli",[12],60%
CC(C)N(C(=O)n1cnn(S(=O)(=O)C2CCCCC2)c1=O)c1cccc(F)c1F [Compound 11-293],Weed suppression rate (%) Scirpus juncoides,[1],100%
same,Weed suppression rate (%) Lindemia pyxidaria,[2],100%
same,Weed suppression rate (%) Monochoria vaginalis,[3],100%
same,Weed suppression rate (%) Echinochloa crus-galli,[4],100%
same,"herbicidal effect, Chenopodium album",[5],70%
same,"herbicidal effect, Crabgrass",[6],100%
same,Weed suppression rate (%) Scirpus juncoides,[7],100%
same,Weed suppression rate (%) Lindemia pyxidaria,[8],100%
same,Weed suppression rate (%) Monochoria vaginalis,[9],100%
same,Weed suppression rate (%) Echinochloa crus-galli,[10],100%
same,"herbicidal effect, Amaranthus viridis",[11],60%
same,"herbicidal effect, Echinochloa crus-galli",[12],90%
